{"source": "patent US12383544B2", "about": "“Methods for the treatment of polycystic kidney disease” (Galapagos NV, priority 2019, dated 2025)", "tested_on": "Pkd1-KO mouse-inner medullary collecting duct cells (mIMRFNPKD 5E4)", "test": "3D mice cyst assay", "type": "cell-based", "conditions": "10 μM; 72 h; forskolin", "protocol": "This assays uses PKD1−/− knocked-down medullary mouse duct cells which form small cysts. This cysts are then further stimulated with forskolin causing their expansion. Test compounds are then added with additional forskolin in order to evaluate their ability to counteract cysts formation. After 3 days, these cells are imaged, to measure in particular cyst size, cell number, nucleus shape, wall thickness.\nThe 3D cyst culture assay has been performed with Pkd1-KO mouse-inner medullary collecting duct cells (m[…] 5E4) cells as described previously. (Booij et al. 2017) In short: m[…] 5.10^4 cells were mixed with Cyst-Gel (OcellO B. V., Oortweg 21, Leiden, 2333CH, Netherlands). 15 μL of cell-gel mix was pipetted to 384-well plates (Greiner μClear, Greiner Bio-One B.V.) using a CyBio Felix 96/60 robotic liquid dispenser (Analyik Jena A G). Gel-cell mix was plated at a final cell density of 2250 cells per well. After gel polymerization at 37° C. for 30 min, 33 μL culture medium was added to each well. Cells were grown in gel for 96 h, after which the cells were co-exposed with forskolin (Calbiochem) and the following molecules: Rapamycin (SelleckChem, S1039), Staurosporin (SelleckChem, 51421) were used as cyst inhibiting or toxic control respectively. Test compounds were tested in the 3D assay at the indicated final concentrations. […]"}
{"compound": "COC1CCN(C2CCN(c3cc(C(=O)NS(=O)(=O)N(C)C)nc4c3c(C3CCC3)nn4-c3ccc(F)cc3)CC2)CC1", "note": "[Cpd 1]", "values": [{"measurement": "cyst swelling compared to vehicle (set at 100%)", "result": 14.5, "unit": "%"}, {"measurement": "reduction in cyst swelling", "result": 85.5, "unit": "%"}]}
